From patent US6177475A, “Methods of using integrin modulators for treatment of inflammation” (priority 1997, dated 2001)

What was measured:
[1] = tested on: MT-2 cells / K562/VCAM-1 cells (HTLV-I); assay: Syncytium formation of HTLV-I-infected MT-2 cells with K562/VCAM-1 cells; format: cell-based; conditions: 3.4 micromoles per liter; higher concentrations not tested
Text: MT-2 cells harbor the complete genome of human T cell lymphotropic virus type 1 (HTLV-I), and they transmit the virus to susceptible uninfected cells in cocultures. The transmission manifests itself as fusion of MT-2 cells with the uninfected cells, followed by syncytium formation. K562 cells transfected with VCAM-1, a ligand of the integrin VIA-4, were used as a fusion partner for MT-2 cells. MT-2 and K562/VCAM-1 cells were washed and resuspended in complete RPMI medium at a density of 2×10^6 /ml. MT2 cells were seeded into flat-bottom 96-well microtiter plates (100 microliters per well). Serial dilutions of Ajoene or of the disintegrin kistrin (final concentration) were introduced into the wells, and the plate was incubated for 30 min prior to addition of 100 microliters of K562/VCAM-1 cells. The plates were then incubated for 4 h before scoring syncytium formation.

[2] = tested on: lymphocyte infiltration into the pancreata; assay: Spontaneous development of autoimmune diabetes in NOD mice (lymphocyte infiltration of pancreata); format: in vivo, Nonobese diabetic (NOD) mice; conditions: 0.3 mg/kg i.p. every other day, 9 weeks
Text: (§1) Nonobese diabetic (NOD) mice are characterized by spontaneous development of insulitis (similar to human insulin-dependent diabetes) and sialoadenitis (similar to Sjogren's disease). The development of autoirmune inflammation in these animals involves several integrin receptors, including VLA-4, CR3, and LFA-1 (CD11a/CD18). Lymphocyte infiltration into the pancreata is mediated primarily by VIA-4, whereas the predominant mechanism of lymphocyte recruitment into the salivary glands involves LFA-1.
(§2) NOD mice (age, 3 to 4 weeks old; average body weight, 10 g) were divided into three groups. Experimental animals received intraperitoneal injections of disintegrins (0.3 mg/kg per animal every other day) for 9 weeks. Control mice were administered with the vehicle.
(§3) The mice were sacrificed and subjected to autopsy. The pancreata and salivary glands were removed and frozen (-70° C.). Thin sections (5 micrometer thick) of these organs were fixed in acetone, stained with hematoxylin and eosin, and evaluated microscopically for lymphocyte infiltration (Tables 6 and 7).

[3] = tested on: lymphocyte infiltration into the salivary glands; assay: Spontaneous development of autoimmune sialoadenitis in NOD mice (lymphocyte infiltration of salivary glands); format: in vivo, Nonobese diabetic (NOD) mice; conditions: 0.3 mg/kg i.p. every other day, 9 weeks
Text: as §1, §2, §3

[4] = pancreas, (+) 1-3 infiltrated islets
[5] = pancreas, (-) no infiltrating lymphocytes
[6] = (+) 1-3 small foci involving only one duct
[7] = (+++) 2 or more foci involving several ducts
[8] = (-) no infiltrating lymphocytes

In the case of Kistrin, the “inhibition of syncytium formation” value [1] is reported as ~ 40%, the “development of large infiltrates in pancreatic islets” value [2] is reported as “completely prevented the development of large infiltrates” and the “proportion of animals with mild infiltration of pancreatic islets” value [2] is reported as “increased the proportion of animals with mild infiltration of pancreatic islets”. The “Number of mice with infiltration score (+)” value [2, 4] was 2 mice, the “Percentage of mice with infiltration score (+)” value [2, 4] was 40% and the “Number of mice with infiltration score (++)” value ([2]; pancreas, (++) 4 islets with moderate infiltration and/or 1-2 islets with large infiltrates) was 0 mice. The “Number of mice with infiltration score (+++)” value ([2]; pancreas, (+++) 3 or more large infiltrates) was 0 mice, the “Number of mice with infiltration score (-)” value [2, 5] was 3 mice and the “Percentage of mice with infiltration score (-)” value [2, 5] was 60%. For the same substance, the “Number of mice with infiltration score (+)” value [3, 6] was 2 mice, the “Percentage of mice with infiltration score (+)” value [3, 6] was 40.0% and the “Number of mice with infiltration score (++)” value ([3]; (++) small foci and/or 1 large focus involving several ducts) was 0 mice. The “Number of mice with infiltration score (+++)” value [3, 7] was 1 mice, the “Percentage of mice with infiltration score (+++)” value [3, 7] was 20.0% and the “Number of mice with infiltration score (-)” value [3, 8] was 2 mice. The “Percentage of mice with infiltration score (-)” value [3, 8] was 40.0%.
